Assay results: US20260199293A1, “2-Arylbenzimidazole Compounds for the Treatment of Hemoglobinopathies” (TRANQUIS THERAPEUTICS, INC., priority 2022, published 2026)

How the values were obtained:
[1] = system: SCD mice; assay: Effects on SCD mice (globin gene expression by qRT-PCR, F cells in peripheral blood by flow cytometry), Example 8; type: in vivo
Procedure: The effects of the compounds and formulations described in Sections 3.2 and 3.3 on SCD mice are studied using methods adapted from Sun et al., Br J Haematol. 197:97-109 (2022), the disclosure of which is herein incorporated by reference in its entirety. Relative mRNA abundance of PGC-1α and globin gene expression are determined by quantitative real-time polymerase chain reaction (qRT-PC R). HbF-positive cells (F cells) in peripheral blood of treated SCD mice are quantified by flow cytometry

[2] = system: human primary erythroid progenitor CD34+ cells; assay: Effects on human primary erythroid progenitor CD34+ cells (F cells by flow cytometry, globin mRNA by qRT-PCR), Example 7; type: cell-based; conditions: for percentage of HbF-positive cells (F cells): flow cytometry
Procedure: The effects of the compounds and formulations described in Sections 3.2 and 3.3 hereinabove on human primary erythroid progenitor CD34^+ cells are studies using methods adapted from Sun et al. Sun et al., Br J Haematol. 197:97-109 (2022), the disclosure of which is herein incorporated by reference in its entirety. HbF-positive cells (F cells) are quantified by flow cytometry after compound exposure. Globin gene mRNA abundance is determined by quantitative real-time polymerase chain reaction (qRT-PCR).

[3] = system: older mice; conditions: cited from earlier work
[4] = Solubility (statement); type: physicochemical
Source text: Oral administration is preferred to parenteral administration for chronic life-long treatment, as is required for treating hemoglobinopathies such as sickle cell disease. […] There is a need, therefore, for agents that increase PGC-1α expression that can be administered orally for treatment of hemoglobinopathies such as SCD.

[5] = system: Ppargc1α (PGC-1α) expression; conditions: cited from earlier work
[6] = system: acute systemic immune activation, including cytokine release syndrome (CRS); conditions: cited from earlier work
[7] = system: murine models of neurodegenerative diseases; conditions: cited from earlier work
[8] = system: human primary erythroid progenitor CD34+ cells; conditions: cited from earlier work
[9] = system: sickle mice; conditions: cited from earlier work

Compound | expression of the murine embryonic βh1-globin gene [1] | human γ-globin gene expression [1] | fetal γ-globin mRNA protein expression [2] | percentage of HbF-positive cells (F cells) [2] | behavioral dysfunction [3] | inflammatory cytokine production in microglia [3] | metabolic dysfunction in microglia [3] | systemic inflammation [3] | solubility [4] | Ppargc1α (PGC-1α) expression [5] | acute systemic immune activation, including cytokine release syndrome (CRS) [6] | disease severity [7] | myeloid-mediated inflammation [7] | cell proliferation and differentiation [8] | fetal γ-globin mRNA and protein expression [8] | percentage of HbF-positive cell (F cells) [8] | expression of the murine embryonic βh1-globin gene [9] | γ-globin expression and fetal hemoglobin (HbF) production [9]
CC(C)(C)c1ccc(-c2nc3cc(O)ccc3[nH]2)cc1 [Compound 26, 2-(4-tert-Butylphenyl)-1H-benzo[d]imidazol-5-ol] | induce | induce | induce | induce | – | – | – | – | – | – | – | – | – | – | – | – | – | –
CC(C)(C)c1ccc(-c2nc3ccccc3[nH]2)cc1 [TQS-168, 2-(4-tert-butylphenyl)-1H-benzimidazole] | induce | induce | induce | induce | alleviate | inhibit | suppress | suppress | poorly soluble | activator | suppress | reduce | suppress | without significantly affecting | induce | induce | robust expression | induce
